Measurements as given in paper PMC10954734, “Structure of antiviral drug bulevirtide bound to hepatitis B and D virus receptor protein NTCP” (Nature Communications, 2024).

Assays:
[1] = target: T1, human NTCP (Homo sapiens, UniProt Q14973); assay: preS1-AX568 binding to HEK-NTCP cells (and its inhibition by TC); type: cell-based; conditions: preincubation with 250 µM TC
T1 construct: The full-length wild-type human NTCP gene (UniProt ID: Q14973); expressed in transfected cells
T1 sequence (Q14973 1-349): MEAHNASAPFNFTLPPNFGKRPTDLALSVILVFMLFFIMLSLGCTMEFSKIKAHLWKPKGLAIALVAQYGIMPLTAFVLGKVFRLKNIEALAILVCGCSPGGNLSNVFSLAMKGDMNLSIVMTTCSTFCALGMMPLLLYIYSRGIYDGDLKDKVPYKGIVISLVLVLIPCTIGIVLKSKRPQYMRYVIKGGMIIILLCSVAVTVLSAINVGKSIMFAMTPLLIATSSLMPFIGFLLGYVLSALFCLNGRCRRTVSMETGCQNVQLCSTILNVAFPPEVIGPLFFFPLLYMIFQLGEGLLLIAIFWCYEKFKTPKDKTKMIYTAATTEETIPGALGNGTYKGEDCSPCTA
Experimental: Human embryonic kidney Flp-In T-Rex 293 cells (Thermo Fisher Scientific, R78007, hereafter referred to as non-NTCP expressing HEK293 cells) stably expressing the human NTCP protein were generated according to the manufacturer’s guidelines as reported before[62] and are hereafter referred to as HEK-NTCP cells. […] For induction of NTCP expression, HEK-NTCP cells were incubated with 1 μg/mL tetracycline (Carl Roth, HP63.1)[62]. […] Inhibitor preincubation was performed over 5 min at 37 °C, consistent with previously published data[64]. Quantification of relative fluorescence was assessed at 570 nm excitation and 615 nm emission on a fluorescence microplate reader (TECAN Life Sciences).

[2] = tested on: Gly158Arg human NTCP; conditions: ref [54]; cited from earlier work
Text: (§1) We aligned the sequence of human NTCP to that of Cynomolgus monkey and Common squirrel monkey, which are representatives of the Old and New World monkeys, respectively (Fig. 6a and Supplementary Fig. 6).

[3] = tested on: Gly158Arg Common squirrel monkey NTCP; conditions: ref [54]; cited from earlier work
Text: as §1

[4] = tested on: SVPs from patient ID1 (HBV GtD); assay: Binding of nanodisc-reconstituted NTCP-eYFP to SVPs of patient ID1 (GtD); conditions: 25–100 nM
Experimental: (§2) The lipids were then mixed with detergent-purified NTCP and incubated at room temperature for 5 min with gentle agitation. Next, membrane scaffold protein (MSP1D1) was added to the mixture and incubated for 20 min at room temperature. […] Bio-Beads were removed by passing through a gravity column (Bio-Rad), and the mixture was briefly spun at 4000 × g at 4 °C to remove excess lipids. […] Peak fractions containing nanodisc-reconstituted NTCP were collected and concentrated.
(§3) Subviral particles (SVPs) were isolated from plasma of two chronic HBV-infected patients by three consecutive ultracentrifugation steps according to published protocols[13]. Briefly, SVP were separated from virions using rate zonal ultracentrifugation through a sucrose density gradient. SVP-containing fractions were pooled and further purified using caesium chloride (CsCl) flotation ultracentrifugation. Pooled SVP-fractions were further purified using a second sucrose density gradient and concentrated by ultrafiltration. […] For fluorescence measurement, 100 μL HBS buffer was added to each well and the fluorescence intensity of eYFP was detected at 485 nm excitation and 535 nm emission on a fluorescence microplate reader (TECAN Life Sciences).

[5] = tested on: SVPs from patient K826 (HBV GtA); assay: Binding of nanodisc-reconstituted NTCP-eYFP to SVPs of patient K826 (GtA); conditions: 25–100 nM
Experimental: as §2, §3

Row | Compound | block of preS1-AX568 binding to NTCP (in words) [1] | TC transport, effect of Gly158Arg mutation [2] | TC transport, effect of Gly158Arg mutation [3] | binding to GtD SVPs (in words) [4] | binding to GtA SVPs (in words) [5]
1 | C[C@H](CCC(=O)NCCS(=O)(=O)O)[C@H]1CC[C@H]2[C@@H]3[C@H](O)C[C@@H]4C[C@H](O)CC[C@]4(C)[C@H]3C[C@H](O)[C@]12C [TC, taurocholic acid] | can be blocked | maintaining the transport activity of NTCP for TC | maintaining the transport activity of NTCP for TC |  | 
2 | NTCP: nanodisc-reconstituted, eYFP-labeled wild-type human NTCP |  |  |  | concentration-dependent binding | concentration-dependent binding
